Experimental data: ChEMBL document CHEMBL4190370, “Emerging New Targets for the Treatment of Resistant Fungal Infections” (J Med Chem, 2018)
Converted amounts (≈) assume the structure as drawn. Blank lines part the entries; values can stand above or below the molecule they belong to.

Tests used:
Candida albicans [1] = assay: Antifungal activity against Candida albicans ATCC 10231 after 24 hrs by CLSI protocol based method; assay type: functional; settings: ATCC 10231, 24 h
Kluyveromyces marxianus = assay: Antifungal activity against Candida kefyr; assay type: functional
Cryptococcus neoformans [2] = assay: Antifungal activity against Cryptococcus neoformans H99 after 48 hrs; assay type: functional; settings: var grubii H99 
Candida albicans [3] = assay: Antifungal activity against Candida albicans ATCC 90028 after 48 hrs by broth-microdilution method; assay type: functional; settings: ATCC 90028, 48 h
Candida albicans [4] = assay: Antifungal activity against Candida albicans ATCC 24433 after 48 hrs by broth-microdilution method; assay type: functional; settings: ATCC 24433, 48 h
Candida albicans [5] = assay: Antifungal activity against Candida albicans TIMM 0239 after 48 hrs by broth-microdilution method; assay type: functional; settings: TIMM 0239, 48 h
Candida albicans [6] = assay: Antifungal activity against Candida albicans ATCC 44859 after 48 hrs by broth-microdilution method; assay type: functional; settings: ATCC 44859, 48 h
Aspergillus fumigatus [7] = assay: Antifungal activity against Aspergillus fumigatus IFM 40808 after 48 hrs by broth-microdilution method; assay type: functional; settings: IFM 40808, 48 h
Candida albicans [8] = assay: Antifungal activity against Candida albicans IFM 40009 after 48 hrs by broth-microdilution method; assay type: functional; settings: IFM 40009, 48 h
Candida albicans [9] = assay: Antifungal activity against Candida albicans IFM 5728 after 48 hrs by broth-microdilution method; assay type: functional; settings: IFM 5728, 48 h
Cryptococcus neoformans [10] = assay: Antifungal activity against Cryptococcus neoformans TIMM 3173 after 48 hrs by broth-microdilution method; assay type: functional; settings: TIMM 3173, 48 h
Candida albicans [11] = assay: Antifungal activity against Candida albicans TIMM 0171 after 48 hrs by broth-microdilution method; assay type: functional; settings: TIMM 0171, 48 h
[12] = target: T1, Glycylpeptide N-tetradecanoyltransferase (Candida albicans (strain SC5314 / ATCC MYA-2876) (Yeast), UniProt P30418); assay: Inhibition of Candida albicans ATCC 90028 NMT using GLTISKLFRR-NH2 as substrate assessed as reduction in [3H]-myristoylated peptide reaction product formation preincubated with substrate for 10 mins followed by enzyme addition measured after 10 mins by HPLC analysis
T1 sequence (P30418 whole entry): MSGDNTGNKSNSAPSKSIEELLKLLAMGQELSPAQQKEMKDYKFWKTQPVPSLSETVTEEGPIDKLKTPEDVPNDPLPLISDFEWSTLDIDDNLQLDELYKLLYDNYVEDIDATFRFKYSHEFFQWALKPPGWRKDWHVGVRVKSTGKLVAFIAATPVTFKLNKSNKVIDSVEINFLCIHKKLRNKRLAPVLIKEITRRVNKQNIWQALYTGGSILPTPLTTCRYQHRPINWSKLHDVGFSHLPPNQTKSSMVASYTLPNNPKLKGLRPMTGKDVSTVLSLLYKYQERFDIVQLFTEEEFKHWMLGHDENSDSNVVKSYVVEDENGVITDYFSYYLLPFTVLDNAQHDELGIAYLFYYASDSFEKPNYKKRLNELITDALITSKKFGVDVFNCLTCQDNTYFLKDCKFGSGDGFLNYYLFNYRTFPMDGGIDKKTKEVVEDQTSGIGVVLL

Candida tropicalis = assay: Antifungal activity against Candida tropicalis KKP 334 by CLSI protocol based method; assay type: functional
Aspergillus fumigatus [13] = assay: Antifungal activity against Aspergillus fumigatus MTU 06002; assay type: functional
Aspergillus fumigatus [14] = assay: Antifungal activity against Aspergillus fumigatus ATCC 46645 after 24 hrs; assay type: functional; settings: ATCC 46645, 24 h
[15] = Oral bioavailability in rat; assay type: ADME, organism-based; settings: in vivo
[16] = Oral bioavailability in rabbit; assay type: ADME, organism-based, Oryctolagus cuniculus; settings: in vivo
[17] = Oral bioavailability in dog; assay type: ADME, organism-based, Canis lupus familiaris; settings: in vivo
[18] = Half life in human; assay type: ADME, organism-based; settings: in vivo
[19] = Inhibition of Saccharomyces cerevisiae IleRS

MIC (Candida albicans [1]): > 512 µg/mL
SMILES: O=C(O)C[C@]1(C(=O)O)OC1C(=O)O (stereo partly specified)

MIC (Kluyveromyces marxianus): 6.25 to 12.5 µg/mL (≈ 42.5 to 85 µM)
SMILES: N[C@@H](CC(=O)CO)C(=O)O

MIC80 (Cryptococcus neoformans [2]): 32 to 64 µg/mL (≈ 109 to 218 µM)
SMILES: Cc1nn(-c2ccccc2)c2nc(C(F)(F)F)cc(O)c12

MIC (Candida albicans [3]): 0.78 µM (≈ 0.411 µg/mL)
MIC (Candida albicans [4]): 0.78 µM (≈ 0.411 µg/mL)
MIC (Candida albicans [5]): 0.78 µM (≈ 0.411 µg/mL)
MIC (Candida albicans [6]): 0.78 µM (≈ 0.411 µg/mL)
MIC (Aspergillus fumigatus [7]): > 25 µM
MIC (Candida albicans [8]): 0.78 µM (≈ 0.411 µg/mL)
MIC (Candida albicans [9]): 0.78 µM (≈ 0.411 µg/mL)
MIC (Cryptococcus neoformans [10]): > 25 µM
MIC (Candida albicans [11]): 0.78 µM (≈ 0.411 µg/mL)
IC50 [12]: 0.00049 µM
SMILES: O=C(Nc1nc2ccc(NC(=O)[C@@H]3CCC[C@H](NCc4ccc5ccccc5c4)C3)cc2s1)C1CCCC1

MIC (Candida tropicalis): 1000 µg/mL (≈ 3220 µM)
SMILES: COC(=O)c1ccc(C[C@@H](C(=O)OC)[C@@H](O)C(=O)OC)cc1

SMILES: C/N=[N+](\[O-])CC[C@H](N)C(=O)O
IC80 (Aspergillus fumigatus [13]): 0.72 µg/mL (≈ 4.47 µM)

SMILES: CC1=C(O)C(=O)C=C2C1=CC=C1[C@@]2(C)CC[C@@]2(C)[C@@H]3C[C@](C)(C(=O)O)CC[C@]3(C)CC[C@]12C [CELASTROL]
MIC (Aspergillus fumigatus [14]): 2 µM (≈ 0.901 µg/mL)

bioavailability [15]: 100%
bioavailability [16]: 100%
bioavailability [17]: 100%
half-life [18]: 7 h
Ki [19]: 1000 µM
SMILES: C=C1C[C@H](N)[C@H](C(=O)O)C1 [ICOFUNGIPEN]
